Tested on: irritative contact dermatitis induced on the ears of mice by croton oil
Assay: Croton oil-induced irritative contact dermatitis on the mouse ear (ear weight, elastase and peroxidase in ear homogenate)
Type: in vivo
Conditions: for Edema formation Weight change in %: ear weight at 24 h, vs croton oil + vehicle; for Inhibition [%] of Skin infiltration of Granulocytes & Monocytes (Myelo-Peroxidase Activity) / Inhibition [%] of Skin infiltration of Neutrophils Elastase Activity: ear homogenate at 24 h
Excerpt: To do this, an inflammatory reaction, i.e., irritative contact dermatitis, is induced on the ears of mice by means of croton oil, and the test substance is applied. This test is explained in more detail below within the framework of the examples. The induction of an inflammatory reaction (irritative contact dermatitis) is a proven model for pharmacological evaluation of the anti-inflammatory potential of topically or systemically administered test substances ([…] and Lowe (1985) Evaluation of Topical Nonsteroidal Anti-Inflammatory Agents, Models in Dermatology, H. Maibach and N.J. Lowe. Basel, Karger: 35-42). Croton oil is applied to the ears of mice to carry out the study; this leads to an acute, inflammatory reaction with edema and infiltration of primarily polymorphonuclear granulocytes that reaches its peak within 24 hours. Test substance can be applied here either preventively, i.e., before application of the inflammatory stimulus, or simultaneously with croton oil. […] The vehicle alone acted as the vehicle control. […] The animals were sacrificed 24 hours after the eczema was triggered, and the ear weight was determined as a measure of inflammation and edema formation. In addition, the elastase and peroxidase parameters were determined from the ear homogenate. The number of animals was basically n=10/group. Elastase is a largely neutrophil-specific enzyme and thus a measure of the number of infiltrated neutrophilic granulocytes. […] Peroxidase is expressed by all granulocytes, in addition also by monocytes. It is used for measuring the infiltrated granulocytes and monocytes. Like neutrophils, granulocytes and monocytes/macrophages are also involved in inflammatory processes of the skin and can be repeatedly detected in the infiltrate of the aforementioned diseases.

[1] = azelaic acid 10%, listed as azelaic acid
[2] = azelaic acid 20%, listed as azelaic acid
[3] = tretinoin 0.05%, listed as tretinoin

## O=C(O)CCCCCCCC(=O)O [Azelaic acid, azelaic acid]
Azelaic acid 10% topical with 1% croton oil
  Edema formation Weight change in %: −6%
Azelaic acid 10% topical with 1% croton oil, listed as azelaic acid
  Edema formation Weight change in %: no significant reduction of the edema
Azelaic acid 10%
  Inhibition [%] of Skin infiltration of Granulocytes & Monocytes (Myelo-Peroxidase Activity): −34%
  Inhibition [%] of Skin infiltration of Neutrophils Elastase Activity: −12%
[1]
  Inhibition [%] of Skin infiltration of Granulocytes & Monocytes (Myelo-Peroxidase Activity): could already be influenced
  Inhibition [%] of Skin infiltration of Neutrophils Elastase Activity: cannot be significantly influenced
Azelaic acid 15% topical with 1% croton oil
  Edema formation Weight change in %: 1%
Azelaic acid 15% topical with 1% croton oil, listed as azelaic acid
  Edema formation Weight change in %: even an increase
Azelaic acid 15%
  Inhibition [%] of Skin infiltration of Granulocytes & Monocytes (Myelo-Peroxidase Activity): −16%
  Inhibition [%] of Skin infiltration of Neutrophils Elastase Activity: −6%
Azelaic acid 15%, listed as azelaic acid
  Inhibition [%] of Skin infiltration of Neutrophils Elastase Activity: cannot be significantly influenced
Azelaic acid 20% topical with 1% croton oil
  Edema formation Weight change in %: −16%
Azelaic acid 20% topical with 1% croton oil, listed as azelaic acid
  Edema formation Weight change in %: no significant reduction of the edema
Azelaic acid 20%
  Inhibition [%] of Skin infiltration of Granulocytes & Monocytes (Myelo-Peroxidase Activity): −40%
  Inhibition [%] of Skin infiltration of Neutrophils Elastase Activity: −48%
[2]
  Inhibition [%] of Skin infiltration of Granulocytes & Monocytes (Myelo-Peroxidase Activity): could already be influenced
  Inhibition [%] of Skin infiltration of Neutrophils Elastase Activity: reduced

## CC1=C(/C=C/C(C)=C/C=C/C(C)=C/C(=O)O)C(C)(C)CCC1 [Tretinoin, tretinoin]
Tretinoin 0.05% topical with 1% croton oil
  Edema formation Weight change in %: −4%
Tretinoin 0.05% topical with 1% croton oil, listed as tretinoin
  Edema formation Weight change in %: does not lead to any significant reduction of edema
Tretinoin 0.05%
  Inhibition [%] of Skin infiltration of Granulocytes & Monocytes (Myelo-Peroxidase Activity): −3%
  Inhibition [%] of Skin infiltration of Neutrophils Elastase Activity: 2%
[3]
  Inhibition [%] of Skin infiltration of Granulocytes & Monocytes (Myelo-Peroxidase Activity): did not lead to a significant decrease of peroxidase concentration
  Inhibition [%] of Skin infiltration of Neutrophils Elastase Activity: did not lead to a decrease of the elastase concentration

Source: patent US20110160306A1, “USE OF ALKANEDICARBOXYLIC ACIDS AND RETINOIDS FOR TREATMENT OF ROSACEA AND OTHER INFLAMMATORY SKIN DISEASES” (priority 2006, published 2011)
